Experimental data reported in patent publication US10975068B2, “6-aminopyridin-3-yl thiazoles as modulators of RORγT” (Janssen Pharmaceutica NV, priority 2016, dated 2021).
pKd: −log10 of the molar value.

biological target: human RORγt ligand binding domain (RORγt LBD) (Homo sapiens (Human), UniProt P51449); experiment: RORγt ThermoFluor® assay (thermal shift binding); settings: read-out: ThermoFluor® Assay, Kd
Method in brief: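 Binding was inferred from thermal stabilisation (ΔTm) of the E. coli-expressed RORγt LBD (0.065 mg/mL), monitored by 1,8-ANS (60 μM) emission at 500 nm during a 1 °C/min ramp. Buffer was Hepes 100 mM pH 7.0 with NaCl, GSH and Tween-20.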

human RORγt ligand binding domain (RORγt LBD), sequence (P51449 other isoform, or with tags, fused parts or gaps): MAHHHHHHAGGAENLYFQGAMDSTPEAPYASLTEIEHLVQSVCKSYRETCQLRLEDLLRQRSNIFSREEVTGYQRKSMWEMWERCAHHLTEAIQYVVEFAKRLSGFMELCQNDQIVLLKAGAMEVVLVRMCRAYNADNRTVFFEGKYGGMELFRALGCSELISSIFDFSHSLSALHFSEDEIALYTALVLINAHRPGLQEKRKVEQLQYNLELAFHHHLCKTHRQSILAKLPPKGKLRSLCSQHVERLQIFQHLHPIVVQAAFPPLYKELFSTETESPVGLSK

Compound | pKd
C[C@H]1CCCN1C(=O)c1nc(C(=O)NC[C@@H](O)C(C)(C)O)sc1-c1cnc(NC(C)(C)C)cc1C(F)(F)F (single isomer, unassigned) [Example 243, 5-(6-(tert-Butylamino)-4-(trifluoromethyl)pyridin-3-yl)-N—((R*)-2,3-dihydroxy-3-methylbutyl)-4-((S)-2-methylpyrrolidine-1-carbonyl)thiazole-2-carboxamide] | 8.14
C[C@H]1CCCN1C(=O)c1nc(C(=O)NCc2n[nH]c(=O)o2)sc1-c1cnc(NC(C)(C)C)cc1C(F)(F)F [Example 305, (S)-5-(6-(tert-Butylamino)-4-(trifluoromethyl)pyridin-3-yl)-4-(2-methylpyrrolidine-1-carbonyl)-N-((5-oxo-4,5-dihydro-1,3,4-oxadiazol-2-yl)methyl)thiazole-2-carboxamide] | 8.31
C[C@H](NC(=O)c1nc(C(=O)N2CC(F)(F)C[C@@H]2C)c(-c2cnc(N[C@@H](C)C(F)(F)F)cc2C(F)F)s1)C(C)(C)O [Example 197] | 8.77
C[C@H](Nc1cc(C(F)(F)F)c(-c2sc(C(=O)NCC(C)(C)O)nc2C(=O)N2CCCC[C@@H]2C)cn1)C(F)(F)F [Example 47, N-(2-Hydroxy-2-methylpropyl)-4-((S)-2-methylpiperidine-1-carbonyl)-5-(4-(trifluoromethyl)-6-(((S)-1,1,1-trifluoropropan-2-yl)amino)pyridin-3-yl)thiazole-2-carboxamide] | 9.30
O=C(N[C@H]1C[C@H](O)C1)c1nc(C(=O)N2C3CCC2CC3)c(-c2cnc(N[C@@H](C3CC3)C(F)(F)F)cc2C(F)F)s1 [Example 318, 4-((1s,4s)-7-Azabicyclo[2.2.1]heptane-7-carbonyl)-5-(6-(((S)-1-cyclopropyl-2,2,2-trifluoroethyl)amino)-4-(difluoromethyl)pyridin-3-yl)-N-((1r,3S)-3-hydroxycyclobutyl)thiazole-2-carboxamide] | 8.09
C[C@H]1CCCCN1C(=O)c1nc(C(=O)NCC(C)(C)O)sc1-c1cnc(NC2CCCC2)cc1C(F)(F)F [Example 27, (S)-5-(6-(Cyclopentylamino)-4-(trifluoromethyl)pyridin-3-yl)-N-(2-hydroxy-2-methylpropyl)-4-(2-methylpiperidine-1-carbonyl)thiazole-2-carboxamide] | 9.28
CC(C)(O)CNC(=O)c1nc(C(=O)N2C3CCC2CC3)c(-c2cnc(NCC(C)(C)C(F)(F)F)cc2C(F)(F)F)s1 [Example 122, 4-((1s,4s)-7-Azabicyclo[2.2.1]heptane-7-carbonyl)-N-(2-hydroxy-2-methylpropyl)-5-(6-((3,3,3-trifluoro-2,2-dimethylpropyl)amino)-4-(trifluoromethyl)pyridin-3-yl)thiazole-2-carboxamide] | 8.77
CC[C@H](Nc1cc(C(F)(F)F)c(-c2sc(C(=O)NCC(C)(C)O)nc2C(=O)N2CCC[C@@H]2C)cn1)C(F)(F)F [Example 111, N-(2-Hydroxy-2-methylpropyl)-4-((S)-2-methylpyrrolidine-1-carbonyl)-5-(6-(((S)-1,1,1-trifluorobutan-2-yl)amino)-4-(trifluoromethyl)pyridin-3-yl)thiazole-2-carboxamide] | 8.74
C[C@H]1CCCN1C(=O)c1nc(C(=O)NCC(C)(C)O)sc1-c1cnc(NC2CCCC2)cc1C(F)(F)F [Example 38, (S)-5-(6-(Cyclopentylamino)-4-(trifluoromethyl)pyridin-3-yl)-N-(2-hydroxy-2-methylpropyl)-4-(2-methylpyrrolidine-1-carbonyl)thiazole-2-carboxamide] | 8.74
C[C@H]1CC(F)(F)CN1C(=O)c1nc(C(=O)NCC(C)(C)O)sc1-c1cnc(NC2(C(F)(F)F)CCC2)cc1C(F)F [Example 124, (S)-4-(4,4-Difluoro-2-methylpyrrolidine-1-carbonyl)-5-(4-(difluoromethyl)-6-((1-(trifluoromethyl)cyclobutyl)amino)pyridin-3-yl)-N-(2-hydroxy-2-methylpropyl)thiazole-2-carboxamide] | 9.28
C[C@H]1CC(F)(F)CN1C(=O)c1nc(C(=O)NCC(C)(C)O)sc1-c1cnc(NC2(C)CCC2)cc1C(F)(F)F [Example 141, (S)-4-(4,4-Difluoro-2-methylpyrrolidine-1-carbonyl)-N-(2-hydroxy-2-methylpropyl)-5-(6-((1-methylcyclobutyl)amino)-4-(trifluoromethyl)pyridin-3-yl)thiazole-2-carboxamide] | 9.17
